For assay [1], the system named is NCI-H292. In words: Antiproliferative activity against human NCI-H292 cells by MTT assay. In kind it is functional, cell-based. On the technique in general: Tetrazolium dyes change colour on reduction, which living cells bring about.
Assay [2] deals with A549. In words: Antiproliferative activity against human A549 cells by MTT assay. In kind it is functional, cell-based.

Experimental findings from ChEMBL document CHEMBL3351395, “Podoimbricatin A, a cytotoxic diterpenoid with an unprecedented 6/6/5/6-fused tetracyclic ring system from the twigs and leaves of Podocarpus imbricatus” (Bioorg Med Chem Lett, 2014) are described below.

As a reminder, the IC50 is the midpoint of a concentration-inhibition curve. High values mean weaker potency, low ones greater potency. As to `CC1(C)CCC[C@]2(C)[C@H]3C[C@H]4C(CO)=CCO[C@@H]4[C@H]3C[C@H](O)[C@@H]12`, the half-inhibitory concentration (IC50) came out at 19.1 µM in assay [1] and 25.2 µM in assay [2].

`C=C1CC[C@@H]2[C@](C)(CCC[C@]2(C)C(=O)O)[C@H]1CC/C(C)=C/C(=O)O` [AGATHIC ACID]: the results for the IC50 in assay [1] and in assay [2] were 20.3 µM and 47.8 µM, respectively.

As to `CCC(C)C1NC(=O)C(NC(=O)/C=C/c2ccccc2)C(C(C)C)Oc2ccc(cc2)/C=C/NC1=O` (stereo unspecified), the IC50 in assay [1] is 17.8 µM; in assay [2], 21.5 µM.
